ChEMBL document CHEMBL1125669, “Synthesis of potential dual-acting radiation sensitizer antineoplastic agents: 2,2-dimethylphosphoraziridines containing 2-nitroimidazoles or other electron-affinic moieties” (1991)

Tests used:
Assay type in all cases: functional
[1] = test system: Mus musculus; experiment: In vivo antitumor activity against P-388 leukemia in CDF1 mice at 128 mg or 335 umol by ip administration expressed as average wt. change determined between day 0 and day 6 of experiment
[2] = test system: Mus musculus; experiment: In vivo antitumor activity against P-388 leukemia in CDF1 mice at 32 mg or 84 umol by ip administration expressed as average wt. change determined between day 0 and day 6 of experiment
[3] = test system: Mus musculus; experiment: In vivo antitumor activity against P-388 leukemia in CDF1 mice at 32 mg or 84 umol by ip administration expressed as median survival time of drug treated mice/median survival time of control mice x100
[4] = test system: Mus musculus; experiment: In vivo antitumor activity against P-388 leukemia in CDF1 mice at 8 mg or 21 umol by ip administration expressed as median survival time of drug treated mice/median survival time of control mice x100
[5] = test system: Mus musculus; experiment: In vivo antitumor activity against P-388 leukemia in CDF1 mice at 128 mg or 335 umol by ip administration expressed as median survival time of drug treated mice/median survival time of control mice x100
[6] = test system: Mus musculus; experiment: In vivo antitumor activity against P-388 leukemia in CDF1 mice at 256 mg or 670 umol by ip administration expressed as median survival time of drug treated mice/median survival time of control mice x100
[7] = test system: Mus musculus; experiment: In vivo antitumor activity against P-388 leukemia in CDF1 mice at 64 mg or 167 umol by ip administration expressed as average wt. change determined between day 0 and day 6 of experiment
[8] = test system: Mus musculus; experiment: In vivo antitumor activity against P-388 leukemia in CDF1 mice at 16 mg or 42 umol by ip administration expressed as median survival time of drug treated mice/median survival time of control mice x100
[9] = test system: Mus musculus; experiment: In vivo antitumor activity against P-388 leukemia in CDF1 mice at 16 mg or 42 umol by ip administration expressed as average wt. change determined between day 0 and day 6 of experiment
[10] = test system: Mus musculus; experiment: In vivo antitumor activity against P-388 leukemia in CDF1 mice at 256 mg or 670 umol by ip administration expressed as average wt. change determined between day 0 and day 6 of experiment
[11] = test system: Mus musculus; experiment: In vivo antitumor activity against P-388 leukemia in CDF1 mice at 8 mg or 21 umol by ip administration expressed as average wt. change determined between day 0 and day 6 of experiment
[12] = test system: Mus musculus; experiment: In vivo antitumor activity against P-388 leukemia in CDF1 mice at 64 mg or 167 umol by ip administration expressed as median survival time of drug treated mice/median survival time of control mice x100
[13] = test system: Mus musculus; experiment: In vivo antitumor activity against P-388 leukemia in CDF1 mice at 64 mg or 166 umol by ip administration expressed as median survival time of drug treated mice/median survival time of control mice x100
[14] = test system: Mus musculus; experiment: In vivo antitumor activity against P-388 leukemia in CDF1 mice at 16 mg or 41 umol by ip administration expressed as median survival time of drug treated mice/median survival time of control mice x100
[15] = test system: Mus musculus; experiment: In vivo antitumor activity against P-388 leukemia in CDF1 mice at 16 mg or 41 umol by ip administration expressed as average wt. change determined between day 0 and day 6 of experiment
[16] = test system: Mus musculus; experiment: In vivo antitumor activity against P-388 leukemia in CDF1 mice at 256 mg or 663 umol by ip administration expressed as average wt. change determined between day 0 and day 6 of experiment
[17] = test system: Mus musculus; experiment: effect of drug treatment in combination with gamma radiation on P-388 leukemia in mice at 250 mg/kg and 400R expressed as median survival time of drug treated mice/median survival time of control mice x100
[18] = test system: Mus musculus; experiment: effect of drug treatment in combination with gamma radiation on P-388 leukemia in mice at 250 mg/kg and 600R expressed as average weight change
[19] = test system: Mus musculus; experiment: In vivo antitumor activity against P-388 leukemia in CDF1 mice at 32 mg or 83 umol by ip administration expressed as median survival time of drug treated mice/median survival time of control mice x100
[20] = test system: Mus musculus; experiment: In vivo antitumor activity against P-388 leukemia in CDF1 mice at 128 mg or 331 umol by ip administration expressed as median survival time of drug treated mice/median survival time of control mice x100
[21] = test system: Mus musculus; experiment: In vivo antitumor activity against P-388 leukemia in CDF1 mice at 32 mg or 83 umol by ip administration expressed as average wt. change determined between day 0 and day 6 of experiment
[22] = test system: Mus musculus; experiment: effect of drug treatment in combination with gamma radiation on P-388 leukemia in mice at 250 mg/kg and 600R expressed as median survival time of drug treated mice/median survival time of control mice x100
[23] = test system: Mus musculus; experiment: effect of drug treatment in combination with gamma radiation on P-388 leukemia in mice at 250 mg/kg and 400R expressed as average weight change
[24] = test system: Mus musculus; experiment: In vivo antitumor activity against P-388 leukemia in CDF1 mice at 256 mg or 663 umol by ip administration expressed as median survival time of drug treated mice/median survival time of control mice x100
[25] = test system: Mus musculus; experiment: effect of drug treatment in combination with gamma radiation on P-388 leukemia in mice at 250 mg/kg and 200R expressed as average weight change
[26] = test system: Mus musculus; experiment: In vivo antitumor activity against P-388 leukemia in CDF1 mice at 128 mg or 331 umol by ip administration expressed as average wt. change determined between day 0 and day 6 of experiment
[27] = test system: Mus musculus; experiment: effect of drug treatment in combination with gamma radiation on P-388 leukemia in mice at 250 mg/kg and 200R expressed as median survival time of drug treated mice/median survival time of control mice x100
[28] = test system: Mus musculus; experiment: In vivo antitumor activity against P-388 leukemia in CDF1 mice at 64 mg or 166 umol by ip administration expressed as average wt. change determined between day 0 and day 6 of experiment

| Compound | Average weight change [1] | Average weight change [2] | T/C [3] | T/C [4] | T/C [5] | T/C [6] | Average weight change [7] | T/C [8] | Average weight change [9] | Average weight change [10] | Average weight change [11] | T/C [12] | also measured |
| --- | --- | --- | --- | --- | --- | --- | --- | --- | --- | --- | --- | --- | --- |
| CC1(C)CN1P(=O)(NC(=O)OCc1ccccc1[N+](=O)[O-])N1CC1(C)C (configuration not stated) | -1.1 g | -0.4 g | 118% | 106% | 141% | 153% | -1.1 g | 106% | 0 g | -1.5 g | 0.6 g | 129% |  |
| CC1(C)CN1P(=O)(NC(=O)OCCn1ccnc1[N+](=O)[O-])N1CC1(C)C (configuration not stated) |  |  |  | 113% |  |  |  |  |  |  | 1.6 g |  | T/C [13]: 144%; T/C [14]: 125%; Average weight change [15]: 0.6 g; Average weight change [16]: -1 g; T/C [17]: 200%; Average weight change [18]: 0.67 g; T/C [19]: 125%; T/C [20]: 156%; Average weight change [21]: 0.8 g; T/C [22]: 230%; Average weight change [23]: 1.17 g; T/C [24]: 169%; Average weight change [25]: 1.92 g; Average weight change [26]: -1.1 g; T/C [27]: 190%; Average weight change [28]: -0.5 g |
| CC1(C)CN1P(=O)(NC(=O)OCc1ccc([N+](=O)[O-])cc1)N1CC1(C)C (configuration not stated) | 2 g | 2.1 g | 106% | 113% | 113% | 119% | 1.4 g | 113% | 1.2 g | 0.6 g | 1.4 g | 113% |  |
